Laboratory results from patent publication US7718647B2, “Substituted azepine derivatives as serotonin receptor modulators” (Athersys, Inc., priority 2004, dated 2010).

Target: T1, human 5HT2c receptor (Homo sapiens, UniProt P28335, I156V/I160V, form not given)
T1 sequence (P28335 1-458 I156V/N158S/I160V): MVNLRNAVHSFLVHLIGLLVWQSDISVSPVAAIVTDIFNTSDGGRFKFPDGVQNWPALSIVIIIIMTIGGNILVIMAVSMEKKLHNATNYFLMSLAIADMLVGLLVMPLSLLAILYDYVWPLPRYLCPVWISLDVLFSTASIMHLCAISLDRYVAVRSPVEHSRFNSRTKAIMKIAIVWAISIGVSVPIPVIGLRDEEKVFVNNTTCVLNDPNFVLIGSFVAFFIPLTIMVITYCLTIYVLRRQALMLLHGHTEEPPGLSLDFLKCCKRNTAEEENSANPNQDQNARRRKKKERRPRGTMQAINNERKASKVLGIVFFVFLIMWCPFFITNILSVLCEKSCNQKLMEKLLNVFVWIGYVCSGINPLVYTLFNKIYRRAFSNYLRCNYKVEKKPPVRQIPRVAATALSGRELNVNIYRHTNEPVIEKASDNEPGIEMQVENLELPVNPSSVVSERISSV
Test: Calcium mobilization (FLIPR) 5HT2c receptor agonist assay in HEK 293 EBNA cells
Assay type: cell-based
Settings: agonist-stimulated calcium release, HEK 293 EBNA cells expressing human 5HT2c receptor, read-out: 5-HT2c EC50 (hVSV)

Row | Compound | EC50 [µM]
1 | Clc1cc2c(s1)CCNCC2 [Example 2, 2-Chloro-5,6,7,8-tetrahydro-4H-thieno[2,3-d]azepine] | < 0.1
2 | c1ccc(-c2cc3c(s2)CCNCC3)cc1 [Example 13, 2-Phenyl-5,6,7,8-tetrahydro-4H-thieno[2,3-d]azepine] | < 10
3 | COc1cccc(-c2cc3c(s2)CCNCC3)c1 [Example 12, 2-(3-Methoxy-phenyl)-5,6,7,8-tetrahydro-4H-thieno[2,3-d]azepine] | < 10
4 | CC1(C)CNCCc2cc(Br)sc21 [Example 34, 2-Bromo-8,8-dimethyl-5,6,7,8-tetrahydro-4H-thieno[2,3-d]azepine] | < 10
5 | O=S(=O)(c1cc2c(s1)CCNCC2)N1CCCC1 [Example 26, 2-(Pyrrolidine-1-sulfonyl)-5,6,7,8-tetrahydro-4H-thieno[2,3-d]azepine] | < 0.01
6 | COc1c(C)sc2c1CCNCC2 [Example 17, 3-Methoxy-2-methyl-5,6,7,8-tetrahydro-4H-thieno[2,3-d]azepine] | < 0.01
7 | CC1CNCCc2sc(Br)c(Br)c21 (single isomer, unassigned) [32, Enantiomer 1] | < 10
8 | Cc1c(Br)sc2c1CCNCC2 [Example 16, 2-Bromo-3-methyl-5,6,7,8-tetrahydro-4H-thieno[2,3-d]azepine] | < 0.01
9 | Cc1c(S(=O)(=O)N(C)C)sc2c1CCNCC2 [Example 28, 3-Methyl-5,6,7,8-tetrahydro-4H-thieno[2,3-d]azepine-2-sulfonic acid dimethylamide] | < 0.01
10 | CN(C)C(=O)c1cc2c(s1)CCNCC2 [Example 30, 5,6,7,8-Tetrahydro-4H-thieno[2,3-d]azepine-2-carboxylic acid dimethylamide] | < 1
11 | Cc1csc2c1CCNCC2 [Example 43, 3-Methyl-5,6,7,8-tetrahydro-4H-thieno[2,3-d]azepine] | < 1
12 | C=C(C)c1sc2c(c1OC)CCNCC2 [Example 20, 2-Isopropenyl-3-methoxy-5,6,7,8-tetrahydro-4H-thieno[2,3-d]azepine] | < 0.01
13 | Brc1cc2c(s1)CCNCC2 [Example 1, 2-Bromo-5,6,7,8-tetrahydro-4H-thieno[2,3-d]azepine] | < 0.01
14 | Fc1cccc(Cl)c1Cc1sc2c(c1Br)CCNCC2 [Example 15, 3-Bromo-2-(2-chloro-6-fluoro-benzyl)-5,6,7,8-tetrahydro-4H-thieno [2,3-d]azepine] | < 10
15 | Clc1ccc(Cl)c(-c2cc3c(s2)CCNCC3)c1 [Example 10, 2-(2,5-Dichloro-phenyl)-5,6,7,8-tetrahydro-4H-thieno[2,3-d]azepine] | > 10
16 | CC1CNCCc2cc(Cl)sc21 (racemic) [Example 31, (R,S)-2-Chloro-8-methyl-5,6,7,8-tetrahydro-4H-thieno[2,3-d]azepine] | < 0.1
17 | O=C(NC1CCCC1)c1cc2c(s1)CCNCC2 [Example 29, 5,6,7,8-Tetrahydro-4H-thieno[2,3-d]azepine-2-carboxylic acid cyclopentylamide] | < 10
18 | Cc1c(Br)sc2c1C(C)CNCC2 (single isomer, unassigned) [36, Enantiomer 2] | < 1
19 | COc1c(Br)sc2c1CCNCC2 [Example 18, 2-Bromo-3-methoxy-5,6,7,8-tetrahydro-4H-thieno[2,3-d]azepine] | < 0.01
20 | Cc1c(Br)sc2c1C(C)CNCC2 (single isomer, unassigned) [36, Enantiomer 1] | > 10
21 | COC1CNCCc2sc(Br)cc21 (racemic) [Example 33, (R,S)-2-Bromo-4-methoxy-5,6,7,8-tetrahydro-4H-thieno[2,3-d]azepine] | < 1
22 | FC(F)(F)c1ccccc1-c1cc2c(s1)CCNCC2 [Example 7, 2-(2-Trifluoromethyl-phenyl)-5,6,7,8-tetrahydro-4H-thieno[2,3-d]azepine] | > 10
23 | Fc1ccc(-c2cc3c(s2)CCNCC3)cc1Cl [Example 9, 2-(3-Chloro-4-fluoro-phenyl)-5,6,7,8-tetrahydro-4H-thieno[2,3-d]azepine] | > 10
24 | CC1CNCCc2sc(Br)c(Br)c21 (single isomer, unassigned) [32, Enantiomer 2] | < 0.1
25 | Brc1sc2c(c1Br)CCNCC2 [Example 3, 2,3-Dibromo-5,6,7,8-tetrahydro-4H-thieno[2,3-d]azepine] | < 0.01
26 | CC(C)(C)CC(C)(C)c1sc2c(c1Cl)CCNCC2 [Example 47, 3-Chloro-2-(1,1,3,3-tetramethyl-butyl)-5,6,7,8-tetrahydro-4H-thieno[2,3-d]azepine] | < 10

Row | Compound | EC50 [µM]
27 | COc1c(Cl)sc2c1CCNCC2 [Example 19, 2-Chloro-3-methoxy-5,6,7,8-tetrahydro-4H-thieno[2,3-d]azepine] | < 1
28 | FC(F)(F)c1sc2c(c1Br)CCNCC2 [Example 42, 3-Bromo-2-trifluoromethyl-5,6,7,8-tetrahydro-4H-thieno[2,3-d]azepine] | < 0.01
29 | FC(F)(F)Oc1ccc(-c2cc3c(s2)CCNCC3)cc1 [Example 6, 2-(4-Trifluoromethoxy-phenyl)-5,6,7,8-tetrahydro-4H-thieno[2,3-d]azepine] | > 10
30 | CCc1ccc(-c2cc3c(s2)CCNCC3)cc1 [Example 11, 2-(4-Ethyl-phenyl)-5,6,7,8-tetrahydro-4H-thieno[2,3-d]azepine] | > 10
31 | Clc1c(Br)sc2c1CCNCC2 [Example 5, 2-Bromo-3-chloro-5,6,7,8-tetrahydro-4H-thieno[2,3-d]azepine] | < 0.01
32 | CC(C)(C)c1cc2c(s1)CCNCC2 [Example 45, 2-tert-Butyl-5,6,7,8-tetrahydro-4H-thieno[2,3-d]azepine] | < 0.1
33 | Brc1sc2c3c1CCC3CNCC2 (single isomer, unassigned) [37, Enantiomer 2] | < 0.1
34 | Brc1sc2c3c1CCC3CNCC2 (single isomer, unassigned) [37, Enantiomer 1] | < 1
35 | Fc1cccc(Cl)c1Cc1cc2c(s1)CCNCC2 [Example 14, 2-(2-Chloro-6-fluoro-benzyl)-5,6,7,8-tetrahydro-4H-thieno[2,3-d]azepine] | < 1
36 | CC(C)(C)c1sc2c(c1Cl)CCNCC2 [Example 46, 2-tert-Butyl-3-chloro-5,6,7,8-tetrahydro-4H-thieno[2,3-d]azepine] | < 0.1
37 | Clc1sc2c(c1Cl)CCNCC2 [Example 4, 2,3-Dichloro-5,6,7,8-tetrahydro-4H-thieno[2,3-d]azepine] | < 0.01
38 | Brc1cc2c(o1)CCNCC2 [Example 49, 2-Bromo-5,6,7,8-tetrahydro-4H-furo[2,3-d]azepine] | < 1
39 | CC(C)(C)c1sc2c3c1CCC3CNCC2 (single isomer, unassigned) [39, Enantiomer 1] | < 0.1
40 | Clc1csc2c1CCNCC2 [Example 48, 3-Chloro-5,6,7,8-tetrahydro-4H-thieno[2,3-d]azepine] | < 10
41 | Cc1c(C(C)(C)C)sc2c1CCNCC2 [Example 21, 2-tert-Butyl-3-methyl-5,6,7,8-tetrahydro-4H-thieno[2,3-d]azepine] | < 0.1
42 | FC(F)(F)c1sc2c(c1Cl)CCNCC2 [Example 41, 3-Chloro-2-trifluoromethyl-5,6,7,8-tetrahydro-4H-thieno[2,3-d]azepine] | < 0.1
43 | FC(F)(F)c1cc2c(s1)CCNCC2 [Example 40, 2-Trifluoromethyl-5,6,7,8-tetrahydro-4H-thieno[2,3-d]azepine] | < 0.01
44 | Fc1ccc(-c2cc3c(s2)CCNCC3)cc1 [Example 8, 2-(4-Fluoro-phenyl)-5,6,7,8-tetrahydro-4H-thieno[2,3-d]azepine] | < 10
45 | Cc1sc2c3c1CCC3CNCC2 (racemic) [Example 38, (R,S)-2-Methyl-4,4a,5,6,7,8-hexahydro-3H-1-thia-6-aza-cyclopenta[cd]azulene] | < 1
46 | CCC1CNCCc2sc(Br)cc21 (racemic) [Example 35, (R,S)-2-Bromo-4-ethyl-5,6,7,8-tetrahydro-4H-thieno[2,3-d]azepine] | < 0.1
47 | CC(C)(C)c1sc2c3c1CCC3CNCC2 (single isomer, unassigned) [39, Enantiomer 2] | < 0.01
48 | Brc1cc2c(s1)C1(CC1)CNCC2 [Example 25, 2-Bromo-8-spirocyclopropyl-5,6,7,8-tetrahydro-4H-thieno[2,3-d]azepine] | < 1
49 | COc1c(C(C)C)sc2c1CCNCC2 [Example 22, 2-Isopropyl-3-methoxy-5,6,7,8-tetrahydro-4H-thieno[2,3-d]azepine] | < 0.01
50 | CN(C)S(=O)(=O)c1cc2c(s1)CCNCC2 [Example 27, 5,6,7,8-Tetrahydro-4H-thieno[2,3-d]azepine-2-sulfonic acid dimethylamide] | < 0.01
51 | COc1c(C(C)(C)C)sc2c1CCNCC2 [Example 44, 2-tert-Butyl-3-methoxy-5,6,7,8-tetrahydro-4H-thieno[2,3-d]azepine] | < 0.01
